From PubChem BioAssay AID1963845 (Molecular Pharmacology Branch, DTP, NCI, 2024)

Tested on: 429239-143-T-J1-PDC complex spheroid viability
Test: Anticancer human tumor 429239-143-T-J1-PDC patient-derived small cell lung carcinoma cell line growth inhibition [POLQ]
Conditions: for IC50: curve of first compound; for viability, T/C: stronger effect = lower value
Procedure, shortened: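 Growth inhibition in 3D: complex spheroids (tumor PDC, HUVEC, MSC) treated with POLQ inhibitor combinations; where Cmax unknown, highest tested concentration 10 microM, except SN-38 at 1 microM.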
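Note: luminescence signal used as surrogate measure of viable cells; spheroids exposed to compounds for seven days before readout.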
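Throughout, for viability, T/C: 100% = DMSO vehicle control viability as luminescence relative to vehicle.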

In the case of CC1COCCN1c1cc(C2(S(C)(=N)=O)CC2)nc(-c2ccnc3[nH]ccc23)n1 (configuration not stated) + Nc1ccc(C#CCN(C(=O)Cc2ncc(C(F)(F)F)cc2C(F)(F)F)c2ccc(F)cc2)nn1, the IC50 (second compound 0.0316 µM) is reported as greater than 10 µM, the IC50 (second compound 0.1 µM) is reported as 9.98 µM and the IC50 (second compound 0.316 µM) is reported as 9.92 µM. It also gave an IC50 (second compound 1 µM) greater than 10 µM, an IC50 (second compound 3.16 µM) of 8.71 µM and an IC50 (second compound 10 µM) of 7.19 µM. It also gave a viability, T/C (second compound 0.0316 µM, first compound 0.0316 µM) of 90.4%, a viability, T/C (second compound 0.0316 µM, first compound 0.1 µM) of 105% and a viability, T/C (second compound 0.0316 µM, first compound 0.316 µM) of 100%. For the same compound, the viability, T/C (second compound 0.0316 µM, first compound 1 µM) was 91%, the viability, T/C (second compound 0.0316 µM, first compound 3.16 µM) was 80.4% and the viability, T/C (second compound 0.0316 µM, first compound 10 µM) was 53.3%. It also gave a viability, T/C (second compound 0.1 µM, first compound 0.0316 µM) of 109%, a viability, T/C (second compound 0.1 µM, first compound 0.1 µM) of 104% and a viability, T/C (second compound 0.1 µM, first compound 0.316 µM) of 94.6%. For the same compound, the viability, T/C (second compound 0.1 µM, first compound 1 µM) was 95.2%, the viability, T/C (second compound 0.1 µM, first compound 3.16 µM) was 84.8% and the viability, T/C (second compound 0.1 µM, first compound 10 µM) was 49%. The viability, T/C (second compound 0.316 µM, first compound 0.0316 µM) was 99.9%, the viability, T/C (second compound 0.316 µM, first compound 0.1 µM) was 97.7% and the viability, T/C (second compound 0.316 µM, first compound 0.316 µM) was 97.2%. It also gave a viability, T/C (second compound 0.316 µM, first compound 1 µM) of 92.5%, a viability, T/C (second compound 0.316 µM, first compound 3.16 µM) of 77.2% and a viability, T/C (second compound 0.316 µM, first compound 10 µM) of 49.6%. The viability, T/C (second compound 1 µM, first compound 0.0316 µM) was 113%, the viability, T/C (second compound 1 µM, first compound 0.1 µM) was 91.2% and the viability, T/C (second compound 1 µM, first compound 0.316 µM) was 90.2%. The viability, T/C (second compound 1 µM, first compound 1 µM) was 90.2%, the viability, T/C (second compound 1 µM, first compound 3.16 µM) was 79.2% and the viability, T/C (second compound 1 µM, first compound 10 µM) was 51.6%. For the same compound, the viability, T/C (second compound 3.16 µM, first compound 0.0316 µM) was 99.1%, the viability, T/C (second compound 3.16 µM, first compound 0.1 µM) was 86.8% and the viability, T/C (second compound 3.16 µM, first compound 0.316 µM) was 90.7%. It also gave a viability, T/C (second compound 3.16 µM, first compound 1 µM) of 95.2%, a viability, T/C (second compound 3.16 µM, first compound 3.16 µM) of 79.6% and a viability, T/C (second compound 3.16 µM, first compound 10 µM) of 46%. The viability, T/C (second compound 10 µM, first compound 0.0316 µM) was 95.5%, the viability, T/C (second compound 10 µM, first compound 0.1 µM) was 91.4% and the viability, T/C (second compound 10 µM, first compound 0.316 µM) was 101%. The viability, T/C (second compound 10 µM, first compound 1 µM) was 83.9%, the viability, T/C (second compound 10 µM, first compound 3.16 µM) was 79.7% and the viability, T/C (second compound 10 µM, first compound 10 µM) was 38.5%.
